Measured values taken from ChEMBL document CHEMBL1137073, “Development of irreversible diphenyl phosphonate inhibitors for urokinase plasminogen activator” (J Med Chem, 2004).

Legend:
[1] = target: T1, Urokinase-type plasminogen activator (Homo sapiens, UniProt P00749); assay: (§1) Inhibitory activity against Urokinase-type plasminogen activator
Coagulation factor X [2] = target: T2, Coagulation factor X (Homo sapiens, UniProt P00742); assay: Inhibitory activity against Coagulation factor Xa
Plasminogen [3] = target: T3, Plasminogen (Homo sapiens, UniProt P00747); assay: Inhibitory activity against plasmin
[4] = target: T4, Tissue-type plasminogen activator (Homo sapiens, UniProt P00750); assay: Inhibitory activity against Tissue type plasminogen activator
Target sequence in this assay (P00750 whole entry): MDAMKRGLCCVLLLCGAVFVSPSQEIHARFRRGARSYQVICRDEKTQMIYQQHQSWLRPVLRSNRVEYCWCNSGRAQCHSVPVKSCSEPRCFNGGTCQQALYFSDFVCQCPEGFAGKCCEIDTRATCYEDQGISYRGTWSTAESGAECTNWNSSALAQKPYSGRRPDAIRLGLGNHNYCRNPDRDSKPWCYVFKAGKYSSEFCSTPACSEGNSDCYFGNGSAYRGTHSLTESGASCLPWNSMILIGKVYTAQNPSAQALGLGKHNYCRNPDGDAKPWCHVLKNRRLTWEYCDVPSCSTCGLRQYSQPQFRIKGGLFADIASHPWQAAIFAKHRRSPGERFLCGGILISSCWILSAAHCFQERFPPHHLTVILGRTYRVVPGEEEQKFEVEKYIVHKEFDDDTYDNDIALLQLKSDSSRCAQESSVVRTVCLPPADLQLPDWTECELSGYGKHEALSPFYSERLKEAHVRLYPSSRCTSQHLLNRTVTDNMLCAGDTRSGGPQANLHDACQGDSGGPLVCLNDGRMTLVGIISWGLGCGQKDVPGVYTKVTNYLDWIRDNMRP

Prothrombin [5] = target: T5, Prothrombin (Homo sapiens, UniProt P00734); assay: Inhibitory activity against thrombin
Plasminogen [6] = target: T3, Plasminogen; settings: at 250 µM
Description: Inhibitory activity against plasmin at a concentration of 250 uM

Prothrombin [7] = target: T5, Prothrombin; settings: at 250 µM
Description: Inhibitory activity against thrombin at a concentration of 250 uM

[8] = target: T1, Urokinase-type plasminogen activator; assay: as §1; remark: listed apart in the source
Prothrombin [9] = target: T5, Prothrombin; assay: Inhibitory activity against thrombin at a concentration of 2.5 uM
Coagulation factor X [10] = target: T2, Coagulation factor X; settings: at 250 µM
Description: Inhibitory activity against Coagulation factor Xa at a concentration of 250 uM

[11] = target: T4, Tissue-type plasminogen activator; settings: at 250 µM
Target sequence in this assay (P00750 36-562 limits assumed): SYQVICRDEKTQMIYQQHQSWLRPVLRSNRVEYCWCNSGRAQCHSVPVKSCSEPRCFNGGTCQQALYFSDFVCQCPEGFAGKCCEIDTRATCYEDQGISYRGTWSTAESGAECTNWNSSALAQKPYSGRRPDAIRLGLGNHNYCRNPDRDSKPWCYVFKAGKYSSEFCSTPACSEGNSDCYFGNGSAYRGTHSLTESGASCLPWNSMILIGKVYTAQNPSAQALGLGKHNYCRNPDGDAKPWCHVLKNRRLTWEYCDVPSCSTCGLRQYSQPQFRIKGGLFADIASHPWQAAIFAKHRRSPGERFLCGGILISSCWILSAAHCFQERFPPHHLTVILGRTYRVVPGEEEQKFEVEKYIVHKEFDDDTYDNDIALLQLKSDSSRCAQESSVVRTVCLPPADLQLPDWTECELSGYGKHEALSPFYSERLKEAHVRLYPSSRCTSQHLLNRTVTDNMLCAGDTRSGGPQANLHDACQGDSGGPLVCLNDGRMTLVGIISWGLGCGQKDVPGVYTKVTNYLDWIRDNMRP
Description: (§2) Inhibitory activity against Tissue type plasminogen activator at a concentration of 250 uM

[12] = target: T4, Tissue-type plasminogen activator; assay: Inhibitory activity against Tissue type plasminogen activator at a concentration of 2.5 uM
Target sequence in this assay (P00750 36-562 limits assumed): as above

[13] = target: T4, Tissue-type plasminogen activator; settings: at 250 µM; remark: listed apart in the source
Target sequence in this assay (P00750 36-562 limits assumed): as above
Description: as §2

[14] = target: T4, Tissue-type plasminogen activator; assay: Inhibitory activity against Tissue type plasminogen activator at a concentration of
Target sequence in this assay (P00750 36-562 limits assumed): as above

T3 sequence (P00747 97-580 limits assumed): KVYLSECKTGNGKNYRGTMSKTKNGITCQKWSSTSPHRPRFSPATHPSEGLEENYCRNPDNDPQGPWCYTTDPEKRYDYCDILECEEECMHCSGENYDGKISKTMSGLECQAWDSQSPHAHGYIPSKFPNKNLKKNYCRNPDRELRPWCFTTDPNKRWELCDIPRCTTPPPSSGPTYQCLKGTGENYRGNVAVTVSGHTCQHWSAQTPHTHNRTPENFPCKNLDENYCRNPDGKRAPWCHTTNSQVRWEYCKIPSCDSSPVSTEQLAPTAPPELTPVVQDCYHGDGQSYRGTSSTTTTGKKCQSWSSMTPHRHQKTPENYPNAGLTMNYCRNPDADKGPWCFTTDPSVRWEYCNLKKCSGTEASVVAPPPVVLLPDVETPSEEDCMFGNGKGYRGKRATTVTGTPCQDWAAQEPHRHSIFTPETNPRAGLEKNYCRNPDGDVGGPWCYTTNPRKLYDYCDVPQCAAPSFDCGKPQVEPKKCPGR
T3 sequence (P00747 581-810 limits assumed): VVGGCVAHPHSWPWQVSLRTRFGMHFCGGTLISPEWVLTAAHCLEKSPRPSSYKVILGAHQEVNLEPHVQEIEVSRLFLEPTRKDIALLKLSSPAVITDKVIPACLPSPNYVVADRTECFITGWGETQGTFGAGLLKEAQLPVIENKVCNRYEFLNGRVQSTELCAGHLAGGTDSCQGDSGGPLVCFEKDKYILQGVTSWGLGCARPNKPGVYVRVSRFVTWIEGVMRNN
T2 sequence (P00742 41-179 limits assumed): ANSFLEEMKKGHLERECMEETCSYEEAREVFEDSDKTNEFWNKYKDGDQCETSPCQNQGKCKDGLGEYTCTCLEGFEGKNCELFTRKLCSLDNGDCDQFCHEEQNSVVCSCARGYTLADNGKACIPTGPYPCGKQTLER
T2 sequence (P00742 235-488 limits assumed): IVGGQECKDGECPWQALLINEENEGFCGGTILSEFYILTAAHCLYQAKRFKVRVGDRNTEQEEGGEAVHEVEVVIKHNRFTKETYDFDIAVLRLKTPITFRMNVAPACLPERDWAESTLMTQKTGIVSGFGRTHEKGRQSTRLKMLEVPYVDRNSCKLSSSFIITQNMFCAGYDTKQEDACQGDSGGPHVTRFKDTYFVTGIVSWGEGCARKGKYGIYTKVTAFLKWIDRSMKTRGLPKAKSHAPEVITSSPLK

Structure (SMILES)	IC50 [1] [µM]	inhibition (Plasminogen [6]) [%]	K app [8] [M⁻¹ s⁻¹]	inhibition (Coagulation factor X [10]) [%]	also measured
C[C@H](NC(=O)[C@@H](CO)NC(=O)OCc1ccccc1)C(=O)NC(c1ccc(N=C(N)N)cc1)P(=O)(Oc1ccccc1)Oc1ccccc1 (some centres undefined)	1.6	–	–	–	–
C[C@H](NC(=O)[C@@H](CO)NC(=O)OCc1ccccc1)C(=O)NC(Cc1ccc(N=C(N)N)cc1)P(=O)(Oc1ccccc1)Oc1ccccc1 (some centres undefined)	0.057	–	–	–	IC50 (Coagulation factor X [2]): 79 µM; IC50 (Plasminogen [3]): 22 µM; IC50 [4]: 14 µM; IC50 (Prothrombin [5]): 30 µM
C[C@H](NC(=O)[C@@H](CO)NC(=O)OCc1ccccc1)C(=O)NC(CCN=C(N)N)P(=O)(Oc1ccccc1)Oc1ccccc1 (some centres undefined)	–	15	1.4	6	inhibition (Prothrombin [7]): 96%; inhibition (Prothrombin [9]): 10%; inhibition [11]: 46%
C[C@H](NC(=O)[C@@H](CO)NC(=O)OCc1ccccc1)C(=O)NC(CCCCN=C(N)N)P(=O)(Oc1ccccc1)Oc1ccccc1 (some centres undefined)	0.25	–	3.8	–	inhibition [12]: 19%; inhibition (Prothrombin [9]): 12%
C[C@H](NC(=O)[C@@H](CO)NC(=O)OCc1ccccc1)C(=O)NC(Cc1ccc(NC(=N)N)cc1)P(=O)(Oc1ccccc1)Oc1ccccc1 (some centres undefined)	–	–	6.7	–	–
C[C@H](NC(=O)[C@@H](CO)NC(=O)OCc1ccccc1)C(=O)NC([C@H]1CC[C@H](CN=C(N)N)CC1)P(=O)(Oc1ccccc1)Oc1ccccc1 (some centres undefined)	1.1	–	1.4	77	inhibition (Prothrombin [7]): 40%; inhibition [13]: 41%; IC50 (Plasminogen [3]): 32.2 µM
C[C@H](NC(=O)[C@@H](CO)NC(=O)OCc1ccccc1)C(=O)NC(CCCN=C(N)N)P(=O)(Oc1ccccc1)Oc1ccccc1 (some centres undefined)	–	–	–	–	inhibition [12]: 50%
C[C@H](NC(=O)[C@@H](CO)NC(=O)OCc1ccccc1)C(=O)NC(c1ccc(NC(=N)N)cc1)P(=O)(Oc1ccccc1)Oc1ccccc1 (some centres undefined)	–	46	2	56	inhibition [14]: 53%; inhibition (Prothrombin [9]): 44%
N=C(N)NC(=O)c1nc(Cl)c(N)nc1N [AMILORIDE]	–	23	–	17	IC50 [4]: > 250 µM; IC50 (Prothrombin [5]): > 250 µM
C[C@H](NC(=O)[C@@H](CO)NC(=O)OCc1ccccc1)C(=O)NC(CCCNC(=N)N)P(=O)(Oc1ccccc1)Oc1ccccc1 (some centres undefined)	0.061	–	–	–	IC50 (Coagulation factor X [2]): 65 µM; IC50 (Plasminogen [3]): 10.8 µM; IC50 (Prothrombin [5]): 0.5 µM
C[C@H](NC(=O)[C@@H](CO)NC(=O)OCc1ccccc1)C(=O)NC(c1ccc(CN=C(N)N)cc1)P(=O)(Oc1ccccc1)Oc1ccccc1 (some centres undefined)	8.4	45	3.3	44	inhibition (Prothrombin [7]): 20%; inhibition [13]: 43%
C[C@H](NC(=O)[C@@H](CO)NC(=O)OCc1ccccc1)C(=O)NC(CCNC(=N)N)P(=O)(Oc1ccccc1)Oc1ccccc1 (some centres undefined)	4.1	–	–	–	–
